Test results taken from EP2753335B1, “AN ANTHRACYCLINE FOR THE TREATMENT OF SEPSIS” (Instituto de Medicina Molecular, priority 2011, dated 2013).
Structures can show the parent of a compound that is named as a salt.

Key:
muHV-4 virus = assay: Clearance of a secondary intranasal infection one week after administration; assay type: in vivo; conditions: compared with control mice, unpublished data
[1] = tested on: C57BL/6 mice subjected to CLP; assay: Cecal ligation and puncture (CLP) mouse model of severe sepsis, survival; assay type: in vivo; conditions: for protection against severe CLP (survival, in words): doxorubicin 0.5ug/g, daunorubicin 0.6µg/g body weight at the time of procedure and 24 hours later, Figure 6
Protocol: We choose the cecal ligation and puncture (CLP) mouse model to investigate the in vivo effects of epirubicin. In CLP, sepsis results from a polymicrobial infectious abdominal origin, leading to bacteraemia and a systemic inflammatory response^15.
Animal care and experimental procedures were conducted in accordance with Portuguese and US guidelines and regulations after approval by the respective local committees (Instituto de Medicina Molecular and Instituto Gulbenkian de Ciência). All mice used were 8-12 weeks old. Mice were bred and maintained under specific pathogen-free (SPF) conditions. C57BL/6 and C57BL/6 ATM^-/- were obtained from the Instituto Gulbenkian de Ciência (a kind gift from Dr. Vasco Barreto). C57BL/6 Nrf2^-/- mice were provided originally from the RIKEN BioResource Center (Koyadai, Tsukuba, Ibaraki, Japan)^31 and subsequently at the Institute Gulbenkian de Ciência. Cecal Ligation and Puncture was performed as described previously^15.

TNF [2] = assay: In vitro chemical screen (Spectrum collection): TNF secretion by E. coli challenged THP-1 cells, DAS-ELISA; assay type: cell-based, human; conditions: THP-1 cells, 10µM compound for 1 hour, then PFA-fixed E. coli (MOI 20) for 24 hours
Protocol: (§1) We identified 45 leading candidates (Figure 1A and Table I) that inhibited both cytokines.
(§2) THP-1 human monocytes (American Tissue Culture Collection-ATCC TIB-202) were plated in 96 well plates at 10^6 cell/ml and incubated with each one of ∼2320 compounds included in the Spectrum collection (Microsource Discovery Systems, Gaylordsville, CT) at 10µM for 1 hour. Cells were then challenged with 4% PFA-fixed DH5α E.coli at a Multiplicity of Infection (MOI) of 20 bacterial cells per THP-1 cell for an additional 24 hours. The cell supernatants were collected and IL-1β and TNF cytokines quantified by DAS-ELISA, using Human IL-1β/IL-1F2 DuoSet® and Human TNF DuoSet® (R&D Systems ®), respectively, according to company's protocol.
(§3) We generated a working subset of The RNAi Consortium (TRC) shRNA lentiviral vector library ^33,33 that allows for the silencing of most of the genes that are either human kinases or phosphatases. This subset was composed of 1440 individually arrayed lentiviral shRNA vectors targeting ∼700 genes, after selecting the most efficient shRNAs (two on average) based on available silencing efficiency data from the Broad Institute of MIT and Harvard. THP-1 cells were plated in 96 well plates at 10^6 cell/ml and infected with shRNA-expressing lentivirus. 48 hrs later infected cells were selected with puromycin. After the 3 days of selection, plates were duplicated. One of the plates was used to measure the cell number using Alamar Blue® cell viability assay (Invitrogeia®), according to manufacturer's instructions. In the other plate, cells were stimulated with 4% PFA-fixed DH5α E.coli at a Multiplicity of Infection (MOI) of 20 bacterial cells per THP-1 cell. Twenty-four hours after stimulation, cell supernatants were collected and IL-1β and TNF cytokines quantified by DAS-ELISA. All data values from IL-1β and TNF secretion assays were normalized by dividing the amount of IL-1β and TNF in the conditioned media 24, 12, 8, 6, 4 or 2 hrs after E. coli stimulation by the number of cells in each well and then by the average concentration per cell of the plate. Results were logarithmic natural transformed. Scores were sorted in ascending order and graphed. We calculated 1.5 SDEVs above and below the mean to identify the genes that changed IL-1β and TNF secretion when silenced. The same approach was used to identify the compounds that changed IL-1β and TNF secretion. The selected genes were submitted to two or more rounds of phenotypic validation.

TNF [3] = assay: Concentration-response validation: TNF production by E. coli challenged THP-1 cells; assay type: cell-based; conditions: Homo sapiens; E. coli challenged THP-1 cells (4 hours) after pre-incubation (1 hour) with increasing concentrations; read-out: half-inhibitory concentration (IC50) for TNF
Protocol: (§4) • Figure 1 represents a primary screen to identify compounds in the Spectrum Collection library that inhibit the secretion of TNF and IL-1β. (A) it is a two-dimension plot of TNF and IL-1β production Z scores calculated upon THP-1 cells challenge with PFA-fixed E. coli for 24 hours in the presence of 10µM of each compound. The square defines the area in which compounds are considered primary hits, i.e., inhibiting both TNF and IL-1β, (B) represents the IL-1β and TNF production by E. coli challenged THP-1 cells (4 hours) after a pre-incubation (1 hour) with increasing concentrations of epirubicin. Results shown represent mean ± standard deviation from triplicate samples in one of 3 independent assays. (C) is a transcriptional profiling of THP-1 cell line response to epirubicin and unsupervised clustering of microarray expression profiles. […] Plots depict relative expression of IL-1β, TNF, CCL2, CXCL10, STAT1, STAT2, START4 and STAT5a as assessed by qRT-PCR in E. coli challenged THP-1 cells (4 hours) after a pre-incubation (1 hour) with 5µM epirubicin. […] Results shown represent mean values ± SEM from triplicate readings per animal. […] (D) relates to the expression of IL-1β, TNF, CCL2 and CXCL10 as assessed by qRT-PCR in THP-1 cells treated as in (C). […]

IL-1β [4] = assay: Concentration-response validation: IL-1β production by E. coli challenged THP-1 cells; assay type: cell-based, human
Protocol: as §4

IL-1β [5] = assay: In vitro chemical screen (Spectrum collection): IL-1β secretion by E. coli challenged THP-1 cells, DAS-ELISA; assay type: cell-based, human; conditions: THP-1 cells, 10µM compound for 1 hour, then PFA-fixed E. coli (MOI 20) for 24 hours
Protocol: as §1, §2, §3

THP-1 cells = assay: Autophagy induction in THP-1 cells, flow cytometry with Cyto-ID Green; assay type: cell-based, human; conditions: KU-55933 2µM plus epirubicin 1µM (1 hour), PFA-fixed E. coli 4 hours

SMILES | Z score TNFa (TNF [2]) | Z score IL1b (IL-1β [5]) | other results
COc1cccc2c1C(=O)c1c(O)c3c(c(O)c1C2=O)C[C@@](O)(C(=O)CO)C[C@@H]3O[C@H]1C[C@H](N)[C@@H](O)[C@H](C)O1 [Epirubicin hydrochloride] | -4,474857631 | -1,212875226 | immune competence: clearance of secondary intranasal muHV-4 infection (muHV-4 virus): not immunocompromised; increase of survival of mice subjected to CLP ([1]; i.p. in PBS at the time of CLP and 24hrs later, total 1.2µg/g body weight, no antibiotic, wildtype C57BL/6): ~80%; IC50 (TNF [3]): 500 nM; IC50 (IL-1β [4]; Homo sapiens, THP-1, read-out: half-inhibitory concentration (IC50) for IL-1β): 400 nM
O=c1cc(-c2cccc3c2Sc2ccccc2S3)oc(N2CCOCC2)c1 [KU-55933] | – | – | effect of ATM inhibitor pre-treatment on epirubicin-induced autophagy (THP-1 cells): eliminates this effect; rescue of epirubicin-mediated IL-1β down-regulation (IL-1β [4]; KU-55933 2µM together with epirubicin 1µM, THP-1 cells, E. coli 4 hours): could be rescued
COc1cccc2c1C(=O)c1c(O)c3c(c(O)c1C2=O)C[C@@](O)(C(=O)CO)C[C@@H]3O[C@H]1C[C@H](N)[C@H](O)[C@H](C)O1 [Doxorubicin] | -4,071115136 | -2,412138965 | protection against severe CLP (survival, in words) [1]: comparable protection
COc1cccc2c1C(=O)c1c(O)c3c(c(O)c1C2=O)C[C@@](O)(C(C)=O)C[C@@H]3O[C@H]1C[C@H](N)[C@H](O)[C@H](C)O1 [Daunorubicin] | -3,007093086 | -0,995459172 | protection against severe CLP (survival, in words) [1]: comparable protection
COc1cc([C@@H]2c3cc4c(cc3[C@@H](O[C@@H]3O[C@@H]5CO[C@@H](C)O[C@H]5[C@H](O)[C@H]3O)[C@H]3COC(=O)[C@H]23)OCO4)cc(OC)c1O [etoposide] | – | – | rescue of mortality induced by CLP ([1]; etoposide 2.0µg/g body weight, at the time of procedure and 24 hours later, wildtype C57BL/6): only partially rescues the mortality induced by CLP
CS(=O)(=O)CCCCN=C=S [Erysolin] | -4,442389411 | -1,162701697 | –
CC1(C)C(=O)C=C[C@@]2(C)C1=C(O)C(=O)[C@]1(C)[C@@H]2CC[C@@]2(C)[C@H](c3ccoc3)C[C@H]3O[C@]321 [Cedrelone] | -2,817231786 | -1,852572153 | –
